Assays:
[1] = biological target: T1, heparin binding site of human α-thrombin (Homo sapiens, UniProt P00734); assay: Microplate thermal shift assay, ligands binding to the heparin binding site, turbidity signal
T1 construct: A stock human α-thrombin solution (1.56 mg/mL) from Enzyme Research Labs; purchased Enzyme Research Labs
From the text: Assays for ligands that bind to the heparin binding site of human α-thrombin are more difficult to perform than assays for ligands that bind to the active site of human α-thrombin. At the heparin binding site, no substrate is hydrolyzed, so no spectrophotometric signal can be amplified for instrumental detection. Heparin activity is usually estimated in biological clotting time assays. […] Thus, heparin binding to human α-thrombin represents the kind of challenge encountered with the vast majority of non-enzyme receptor/ligand binding events, which are commonly observed for hormone/receptor interactions, repressor/DNA interactions, neurotransmitter/receptor interactions, etc. Several heparin-like sulfated oligosaccharides and sulfated naphthalene compounds were assayed by the microplate thermal shift assay. Using the thermal shift assay, it was possible to use a single compound per well to quickly rank the compounds in order of increasing binding affinity, with Kd's ranging over three orders of magnitude (see Table 4). Like the experiment in Example 1, the thermal shift assay results agreed closely with the results obtained through an alternative method, which required a series of laborious (15 to 20 single determinations) fluorescence quench assays over a wide range of concentrations of low MW heparin (Olson, S. T. et al., J. Biol. Chem. 266:6342-6352 (1991)).

[2] = biological target: bFGF (Homo sapiens, UniProt P09038); details: read-out: affinity for binding to bFGF by isothermal titrating calorimetry; cited from earlier work
[3] = system: D(II) domain of fibroblast growth factor receptor 1 (FGFR1); assay: Microplate thermal shift assay for ligands binding to D(II) FGFR1, fluorescence emission signal; parameters: species or system human; details: D(II) FGFR1 70 μM; 136 μM ANS; ligand 150-156 μM
From the text: The microplate thermal-shift assay was employed to test the binding of heparin 5000 and pentosan PSO4 to the known heparin binding site in the D(II) domain of fibroblast growth factor receptor 1 (FGFR1). D(II) FGFR1 is a 124 residue domain which is responsible for most of the free energy of binding for bFGF. D(II) FGFR1 was cloned and expressed in E. coli. Recombinant D(II) FGFR1 was renatured from inclusion bodies essentially as described (Wetmore, D. R. et al., Proc. Soc. Mtg., San Diego, Calif. (1994)), except that a hexa-histidine tag was included at the N-terminus to facilitate recovery by affinity chromatography on a Ni^2+ chelate column (Janknecht, R. et al., Natl. Acad. Sci. USA 88:8972-8976 (1991)). D(II) FGFR1 was further purified on a heparin-sepharose column (Kan, M. et al., Science 259:1918-1921 (1993); Pantoliano, M. W. et al., Biochemistry 33:10229-10248 (1994)). […]
The D(II) FGFR1 protein was dissolved in an ANS solution to a concentration of 1.0 mg/mL (70 μM). […] Because ANS fluorescence is very environment dependent (see Lakowicz, I. R., Principles of Fluorescence Spectroscopy, Plenum Press, New York (1983)), the quantum yield observed for the denaturation of different proteins will vary. […] A similar result was obtained for Factor Xa, except that the fluorescence quantum yield for ANS bound to denatured Factor Xa was almost as good as it was for human α-thrombin.

[4] = many described as coagulation anomalies; cited from earlier work
[5] = biological target: T2, acidic fibroblast growth factor (aFGF) (Homo sapiens, UniProt P05230); assay: Microplate thermal shift assay for ligands binding to aFGF, turbidity signal; details: turbidity signal; aFGF 0.25 mg/mL; ligand 47-200 μM
T2 construct: host or cells: E. coli
From the text: The second therapeutic receptor tested in the microplate thermal shift assay was acidic fibroblast growth factor (aFGF), a growth factor that plays a key role in angiogenesis (Folkman, J. et al., J. Biol. Chem. 267:1.0931-10934 (1992)). A synthetic gene for this protein was purchased from R&D Systems (Minneapolis, Minn.), and was cloned and expressed in E. coli using methods similar to those described for basic fibroblast growth factor (bFGF) (Thompson, L. D. et al., Biochemistry 33:3831-3840 (1994); Pantoliano, M. W. et al., Biochemistry 33:10229-10248 (1994); Springer, B. A. et al., J. Biol. Chem. 269:26879-26884 (1994)). Recombinant aFGF was then purified by heparin-sepharose affinity chromatography as described (Thompson, L. D. et al., Biochemistry 33:3831-3840 (1994)). aFGF is also known to bind heparin/heparan, which is a cofactor for mitogenic activity. […] A microplate thermal assay of these compounds was set up in a way similar to that described above for human α-thrombin. […] The affinity constants covered a fairly broad range of binding affinities, with pentosan PSO4 showing the highest affinity.

Sequence of bFGF (P09038 134-288): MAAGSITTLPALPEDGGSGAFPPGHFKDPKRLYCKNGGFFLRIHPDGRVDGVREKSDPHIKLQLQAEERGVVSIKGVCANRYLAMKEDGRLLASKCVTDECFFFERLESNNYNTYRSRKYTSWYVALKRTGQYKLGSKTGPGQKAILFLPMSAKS
Sequence of D(II) domain of fibroblast growth factor receptor 1 (FGFR1) (P11362 158-246 limits assumed): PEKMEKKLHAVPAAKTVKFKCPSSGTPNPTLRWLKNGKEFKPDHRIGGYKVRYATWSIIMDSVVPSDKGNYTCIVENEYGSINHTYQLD
T2 sequence (P05230 whole entry, species assumed): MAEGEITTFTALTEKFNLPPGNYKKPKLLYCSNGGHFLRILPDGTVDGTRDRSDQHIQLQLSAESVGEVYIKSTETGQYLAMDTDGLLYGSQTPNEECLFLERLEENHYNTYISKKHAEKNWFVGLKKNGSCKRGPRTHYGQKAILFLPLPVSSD

pentosan polysulfate [Pentosan PSO4]
affinity at Tm higher than the affinity of heparin 5000 ([1]; thermal shift assay, Table 4): 7 fold | Tm ([1]; turbidity signal, 11 μM thrombin, ligand 40-102 μM): 332.15 °K | Kd [2]: 88 nM | Tm [3]: 319.4 °K | outcome of clinical trials for antiangiogenic activity [4]: discounted due to toxic effects | Tm [5]: 336.15 °K

From US6569631B1, “Microplate thermal shift assay for ligand development using 5-(4″dimethylaminophenyl)-2-(4′-phenyl)oxazole derivative fluorescent dyes” (3-Dimensional Pharmaceuticals, Inc., priority 1998, dated 2003)
